The target of experiment [1] is Neuronal acetylcholine receptor subunit alpha-7 (Rattus norvegicus, UniProt Q05941). The experiment is described as follows: Affinity for alpha-7 neuronal nicotinic acetylcholine receptor subtype determined by inhibition of [3H]-MLA binding to rat brain membranes. Format: cell membranes, Membrane.
The target in experiment [2] is Neuronal acetylcholine receptor alpha4/beta2 (Rattus norvegicus). In words: Affinity for Nicotinic acetylcholine receptor alpha4-beta2 tested by analogue-induced inhibition of [3H]NIC binding to rat striatal membranes.

Chain of Neuronal acetylcholine receptor subunit alpha-7 (Q05941 whole entry): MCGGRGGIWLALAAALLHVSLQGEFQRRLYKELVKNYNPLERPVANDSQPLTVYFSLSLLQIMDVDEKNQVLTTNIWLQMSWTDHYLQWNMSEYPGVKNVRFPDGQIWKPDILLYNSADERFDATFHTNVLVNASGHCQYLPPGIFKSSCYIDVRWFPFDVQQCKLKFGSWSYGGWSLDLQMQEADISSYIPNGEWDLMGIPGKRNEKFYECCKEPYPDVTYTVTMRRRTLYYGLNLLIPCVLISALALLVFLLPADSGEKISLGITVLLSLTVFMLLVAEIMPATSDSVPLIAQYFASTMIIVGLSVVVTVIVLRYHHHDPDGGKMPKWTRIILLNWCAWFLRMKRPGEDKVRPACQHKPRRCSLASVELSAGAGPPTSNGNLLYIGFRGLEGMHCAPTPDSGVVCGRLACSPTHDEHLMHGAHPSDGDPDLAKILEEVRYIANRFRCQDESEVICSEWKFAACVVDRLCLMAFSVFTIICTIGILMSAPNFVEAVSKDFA

`CN1CC[C@@H]2CCc3cc[n+]([BH2-]C#N)cc3[C@@H]21`: the Ki (usually the equilibrium dissociation constant of an inhibitor or competing ligand from its target) amounted to 600 nM in experiment [1] and 2400 nM in experiment [2]. On the same counts, the results for `c1cnc2c(c1)[C@H]1NCC[C@H]1CC2` are greater than 100000 nM and 10500 nM.

The molecule `c1cc2c(cn1)[C@@H]1NCC[C@@H]1CC2` registered a Ki in experiment [1] of 20200 nM. Same read-out and setting: in the case of `CN1CC[C@H]2CCc3c(ccc[n+]3[BH2-]C#N)[C@H]21` it was greater than 100000 nM. Consider `CN1CC[C@H]2CCc3ncccc3[C@H]21`, for which the values for the Ki in experiment [1] and in experiment [2] were greater than 100000 nM and 12200 nM, respectively. `CN1CCC[C@H]1c1ccc[n+]([BH2-]C#N)c1`: the results for the Ki in experiment [1] and in experiment [2] were 41 nM and 15200 nM, respectively. As to `CN1CC[C@@H]2CCc3ccncc3[C@@H]21`, the Ki in experiment [1] is 590 nM; in experiment [2], 400 nM.

With `c1cncc([C@@H]2CCCN2)c1` [NORNICOTINE], the Ki in experiment [1] was 1340 nM.

Source of the values: ChEMBL document CHEMBL1134267 (Bioorg Med Chem Lett, 2001).
